# Measurements as given in US20140243302A1, “BRIDGED BICYCLIC COMPOUNDS FOR THE TREATMENT OF BACTERIAL INFECTIONS” (priority 2011, published 2014).
# System: Staphylococcus aureus Smith
# Test: MIC assay, modified agar dilution (CLSI), S. aureus Smith
# Type: cell-based
# Conditions: Staphylococcus aureus, agar dilution, 35° C., 16-20 hr; lowest concentration that completely inhibited growth; read-out: S_aureus_Smith_WT_MIC
# In short: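 Strains were spotted at about 1×10^4 CFU onto compound-containing Mueller Hinton agar (two-fold series, 128-0.001 μg/mL), horse blood 5% added for pneumococcus and enterococcus. MIC read after 16-20 hr at 35 °C, following a modified CLSI agar dilution method.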
row,Compound,MIC [µg/mL]
1,"COc1ccc2ncc(F)c(CCC34CCC(NCc5ncc6c(n5)OCCO6)(CC3)CO4)c2n1 [Example 144, N-((6,7-Dihydro-[1,4]dioxino[2,3-d]pyrimidin-2-yl)methyl)-1-(2-(3-fluoro-6-methoxy-1,5-naphthyridin-4-yl)ethyl)-2-oxabicyclo[2.2.2]octan-4-amine]",0.125
2,"O=C1COc2ccc(CNC34CCC(CCc5c(F)cnc6ccc(OC[C@H]7C[C@@H](O)[C@@H](O)C7)nc56)(CC3)OC4)nc2N1 [Example 169, 6-((1-(2-(6-(((1r,3R,4S)-3,4-Dihydroxycyclopentyl)methoxy)-3-fluoro-1,5-naphthyridin-4-yl)ethyl)-2-oxabicyclo[2.2.2]octan-4-ylamino)methyl)-2H-pyrido[3,2-b][1,4]oxazin-3(4H)-one]",0.063
3,"COc1ccc2ncc(F)c(CCC34CCC(NCc5ccc6c(c5)OC(F)(F)O6)(CC3)CO4)c2n1 [Example 90, N-((2,2-Difluorobenzo[d][1,3]dioxol-5-yl)methyl)-1-(2-(3-fluoro-6-methoxy-1,5-naphthyridin-4-yl)ethyl)-2-oxabicyclo[2.2.2]octan-4-amine]",0.125
4,"COc1ccc2ncc(F)c(CCC34CCC(NCc5cc6c(Cl)cccc6n(C)c5=O)(CC3)CO4)c2n1 [Example 106, 5-Chloro-3-((1-(2-(3-fluoro-6-methoxy-1,5-naphthyridin-4-yl)ethyl)-2-oxabicyclo[2.2.2]octan-4-ylamino)methyl)-1-methylquinolin-2(1H)-one]",1
5,"Cc1ccc2ncc(=O)n(CCC34CCC(NCc5ccc6c(n5)NC(=O)CO6)(CC3)CO4)c2n1 [Example 126, 6-(((1-(2-(6-Methyl-3-oxopyrido[2,3-b]pyrazin-4(3H)-yl)ethyl)-2-oxabicyclo[2.2.2]octan-4-yl)amino)methyl)-2H-pyrido[3,2-b][1,4]oxazin-3(4H)-one]",0.25
6,"Cc1nc2ccccc2n(CCC23CCC(NCc4ccc5c(n4)NC(=O)CO5)(CC2)CO3)c1=O [Example 114, 6-((1-(2-(3-Methyl-2-oxoquinoxalin-1(2H)-yl)ethyl)-2-oxabicyclo[2.2.2]octan-4-ylamino)methyl)-2H-pyrido[3,2-b][1,4]oxazin-3(4H)-one]",4
7,"CCOC(=O)c1cnc2ccc(OC)nc2c1CCC12CCC(NCc3ccc4c(n3)NC(=O)CO4)(CC1)CC2 [Example 2, Ethyl 6-Methoxy-4-(2-(4-((3-oxo-3,4-dihydro-2H-pyrido[3,2-b][1,4]oxazin-6-yl)methylamino)bicyclo[2.2.2]octan-1-yl)ethyl)-1,5-naphthyridine-3-carboxylate]",0.125
8,"COc1ccc2ncc(F)c(C[C@H](O)C34CCC(NCc5ccc6c(n5)NCCO6)(CC3)CO4)c2n1 [Example 206, (S)-6-(((1-(2-(3-Fluoro-6-methoxy-1,5-naphthyridin-4-yl)-1-hydroxyethyl)-2-oxabicyclo[2.2.2]octan-4-yl)ammonio)methyl)-3,4-dihydro-2H-pyrido[3,2-b][1,4]oxazin-4-ium chloride]",0.06
9,"Cl.O=C1COc2ccc(CNC34CCC(CCN5C(=O)COc6cccnc65)(CC3)OC4)nc2N1 [Example 109, 6-((1-(2-(3-Oxo-2H-pyrido[3,2-b][1,4]oxazin-4(3H)-yl)ethyl)-2-oxabicyclo[2.2.2]octan-4-ylamino)methyl)-2H-pyrido[3,2-b][1,4]oxazin-3(4H)-one Hydrochloride]",8
10,"COc1ccc2ncc(F)c(CCC34CCC(NCc5cc6ccccc6n(C)c5=O)(CC3)CO4)c2n1 [Example 79, 3-((1-(2-(3-Fluoro-6-methoxy-1,5-naphthyridin-4-yl)ethyl)-2-oxabicyclo[2.2.2]octan-4-ylamino)methyl)-1-methylquinolin-2(1H)-one]",0.5

# Results, then the compound that gave them:
row,MIC [µg/mL],Compound
1,0.063,"C=CCOc1ccc2ncc(F)c(CCC34CCC(NCc5ccc6c(n5)NC(=O)CO6)(CC3)CO4)c2n1 [Example 186, 6-{[(1-{2-[3-Fluoro-6-(prop-2-en-1-yloxy)-1,5-naphthyridin-4-yl]ethyl}-2-oxabicyclo[2.2.2]oct-4-yl)amino]methyl}-2H-pyrido[3,2-b][1,4]oxazin-3(4H)-one]"
2,0.063,"COCCOc1ccc2ncc(F)c(CCC34CCC(NCc5ccc6c(n5)NC(=O)CO6)(CC3)CO4)c2n1 [Example 33, 6-((1-(2-(3-Fluoro-6-(2-methoxyethoxy)-1,5-naphthyridin-4-yl)ethyl)-2-oxabicyclo[2.2.2]octan-4-ylamino)methyl)-2H-pyrido[3,2-b][1,4]oxazin-3(4H)-one]"
3,0.031,"COc1ccc2ncc(F)c(CC(O)C34CCC(NCc5nc6c(cc5F)OCC(=O)N6)(CC3)CO4)c2n1 (single isomer, unassigned) [Example 135, 7-Fluoro-6-((1-(2-(3-fluoro-6-methoxy-1,5-naphthyridin-4-yl)-1-hydroxyethyl)-2-oxabicyclo[2.2.2]octan-4-ylamino)methyl)-2H-pyrido[3,2-b][1,4]oxazin-3(4H)-one]"
4,0.016,"COc1cc(F)c2ncc(F)c(CCC34CCC(NCc5ccc6c(n5)NC(=O)CO6)(CC3)CO4)c2c1.Cl [Example 189, 6-((1-(2-(3,8-Difluoro-6-methoxyquinolin-4-yl)ethyl)-2-oxabicyclo[2.2.2]octan-4-ylamino)methyl)-2H-pyrido[3,2-b][1,4]oxazin-3(4H)-one Hydrochloride]"
5,0.016,"COc1ccc2ncc(F)c(CCC34CCC(NCc5ccc6c(n5)NC(=O)CO6)(CC3)CO4)c2c1.Cl [Example 125, 6-((1-(2-(3-Fluoro-6-methoxyquinolin-4-yl)ethyl)-2-oxabicyclo[2.2.2]octan-4-ylamino)methyl)-2H-pyrido[3,2-b][1,4]oxazin-3(4H)-one Hydrochloride]"
6,0.016,"COc1ccc2ncc(F)c(CCC34CCC(NCc5ccc6c(n5)NC(=O)CS6)(CC3)CO4)c2n1 [Example 155, 6-((1-(2-(3-Fluoro-6-methoxy-1,5-naphthyridin-4-yl)ethyl)-2-oxabicyclo[2.2.2]octan-4-ylamino)methyl)-2H-pyrido[3,2-b][1,4]thiazin-3(4H)-one]"
7,0.008,"COc1ccc2ncc(F)c(/C=C/C34CCC(NCc5ccc6c(n5)NC(=O)CO6)(CC3)CO4)c2n1 [Example 19, (E)-6-((1-(2-(3-Fluoro-6-methoxy-1,5-naphthyridin-4-yl)vinyl)-2-oxabicyclo[2.2.2]octan-4-ylamino)methyl)-2H-pyrido[3,2-b][1,4]oxazin-3(4H)-one]"

# Same assay, conditions: agar dilution, 35° C., 16-20 hr; lowest concentration that completely inhibited growth
row,Compound,S_aureus_Smith_WT_MIC [µg/mL]
1,"N#Cc1cnc2ccc(=O)n(CC(O)C34CCC(NCc5cc6c(cn5)OCCO6)(CC3)CO4)c2c1 (single isomer, unassigned; enantiomer b) [Example 161, 5-(2-(4-((2,3-Dihydro-[1,4]dioxino[2,3-c]pyridin-7-yl)methylamino)-2-oxabicyclo[2.2.2]octan-1-yl)-2-hydroxyethyl)-6-oxo-5,6-dihydro-1,5-naphthyridine-3-carbonitrile (Enantiomer B)]",2.00

# Same assay, conditions: agar dilution, 35° C., 16-20 hr; lowest concentration that completely inhibited growth; Hydrochloride
row,Compound,S_aureus_Smith_WT_MIC [µg/mL]
1,"COc1ccc2ncc(F)c(C(O)C(O)C34CCC(NCc5ccc6c(n5)NC(=O)CO6)(CC3)CO4)c2n1.Cl (single isomer, unassigned) [Example 26b, 6-((1-(2-(3-Fluoro-6-methoxy-1,5-naphthyridin-4-yl)-1,2-dihydroxyethyl)-2-oxabicyclo[2.2.2]octan-4-ylamino)methyl)-2H-pyrido[3,2-b][1,4]oxazin-3(4H)-one Hydrochloride]",1.00
